One series has as its system KB cells. Description: In vitro KB cell cytotoxicity assay (crystal violet). Format: cell-based. Conditions: Homo sapiens, 72 h, 3 days culture, read-out: KB Cell Cytotoxicity TD50. The protocol: In Vitro KB Cell Cytotoxicity Assay In vitro KB cell cytoxocity assay was done by modification of the crystal violet assay ([…] et al., Anal Biochem., 159, 109-113 (1986). KB cells were cultivated in Eagles minimum essential medium supplemented with 10% calf serum and incubated at 37° C. in a humidified 5% CO2 atmosphere to prepare a cell stock. Cells were counted using a neubauer hemocytometer and seeded in 96 well plates at 100 μl of 3×10^4 cells/ml and cultured for one day. […] Control wells were identical except that test compound was absent. These were cultured for three days. Then the cells were fixed with addition of 20 μl of 25% glutaraldehyde for 15 minutes, washed with water and dried. Then stained with 100 μl of 0.05% crystal violet for 15 minutes, washed with water and dried. The wells are eluted with […] of 0.05M NaH2 PO4 /ethanol (1:1 v/v) and read at OD540 on a multiscan spectrophotometer. Inhibition value of cell growth was calculated based on optical density using the following equation; [formula] TD50 values were calculated from linear regression ines of the log-logit plot.

The next series relates to Sarcoma 180. As to the kind of experiment: In vivo antitumor activity against Sarcoma 180. Also on record: species or system male ICR mice. The following applies: i.p., days 1, 5 and 9. The protocol:
In Vivo Antitumor Activity Against Sarcoma 180
The compounds of general formula (I) were tested in vivo against Sarcoma 180 xenografted tumor to mice as illustrated herein after.
Sarcoma 180, 5×10^6 cells were inoculated by S.C. to male ICR mice (6 week old) on day 0. Drugs were administered on days 1, 5 and 9. Mice were killed and tumor weight was measured on day 12 after transplantation. The percentage inhibition of tumor growth was calculated from the mean tumor weight of the treated group compared with that of the control group. Number of mice used in each group was between 6 to 7.

Setting [1] is: Mus musculus, Sarcoma-180, ip, 288 h, 12.5 mg/kg/day, tumor s.c., tumor weight day 12, read-out: % Inhibition of tumor growth.
Setting [2] is: Mus musculus, Sarcoma-180, ip, 288 h, 25 mg/kg/day, tumor s.c., tumor weight day 12, read-out: % Inhibition of tumor growth.
The mark [3] stands for this setting: Mus musculus, Sarcoma-180, ip, 288 h, 50 mg/kg/day, tumor s.c., tumor weight day 12, read-out: % Inhibition of tumor growth.
The mark [4] stands for this setting: Mus musculus, Sarcoma-180, ip, 288 h, 100 mg/kg/day, tumor s.c., tumor weight day 12, read-out: % Inhibition of tumor growth.

SMILES strings stand for the structures. ≈ marks a conversion by molar mass, not a printed value. Where a name gives a salt, the structure may show the parent alone.

Turning to `CC(C)[C@H](N)C(=O)NCC(=O)OC[C@H]1CN2C(=O)C[C@@H]2O1.Cl` (mixture of isomers) [Example 42B, (3RS,5SR)-3-[N-(L-2-Amino-3-methylbutyryl)aminoacetyl]oxymethyl-4-oxa-1-azabicyclo[3.2.0]heptan-7-one hydrochloride], the IC50 in the series on KB cells is 0.388 µg/mL. In addition, the “Mortality in 12 days” value in the series on Sarcoma 180 (12.5 mg/kg/day), in the series with Sarcoma 180 (25 mg/kg/day) and in the series with Sarcoma 180 (50 mg/kg/day) was 0/6 each time. Further, the inhibition in vivo at 12.5 mg/kg in the series on Sarcoma 180 (setting [1]) stood at 49.9%. The inhibition in vivo at 25 mg/kg with Sarcoma 180 (setting [2]) amounted to 69%. Further, in the series with Sarcoma 180 (setting [3]), the inhibition in vivo at 50 mg/kg stood at 85.8%.
`Cl.NCC(=O)OC[C@H]1CN2C(=O)C[C@@H]2O1` (racemic) [Example 39, (3RS,5SR)-3-(Aminoacetyl)oxymethyl-4-oxa-1-azabicyclo[3.2.0]heptan-7-one hydrochloride]: the IC50 in the series on KB cells was 0.613 µg/mL. Moreover, the “Mortality in 12 days” value in the series on Sarcoma 180 (12.5 mg/kg/day), in the series on Sarcoma 180 (25 mg/kg/day) and with Sarcoma 180 (50 mg/kg/day) was 0/6 each time. Also, the inhibition in vivo at 12.5 mg/kg with Sarcoma 180 (setting [1]) amounted to 41.9%. The inhibition in vivo at 25 mg/kg in the series with Sarcoma 180 (setting [2]) is 56.7%. Further, the inhibition in vivo at 50 mg/kg with Sarcoma 180 (setting [3]) stood at 76.7%.
With `CC(C)[C@H](N)C(=O)NCC(=O)NC[C@@H]1CN2C(=O)C[C@H]2O1.Cl` (mixture of isomers) [Example 45B, (3RS,5RS)-3-[N-(L-2-amino-3-methylbutyryl)aminoacetyl]aminomethyl-4-oxa-1-azabicyclo[3.2.0]heptan-7-one hydrochloride], the IC50 in the series on KB cells was 1.97 µg/mL. Besides, the “Mortality in 12 days” value in the series on Sarcoma 180 (25 mg/kg/day) and in the series with Sarcoma 180 (50 mg/kg/day) was 0/6 each time. Further, the inhibition in vivo at 25 mg/kg in the series on Sarcoma 180 (setting [2]) worked out at 39.3%. Also, the inhibition in vivo at 50 mg/kg in the series with Sarcoma 180 (setting [3]) is 81.7%.
As to `CC(=O)NC[C@H]1CN2C(=O)C[C@@H]2O1` [Example 2, (3S,5S)-3-(N-Acetylaminomethyl)-4-oxa-1-azabicyclo[3.2.0]heptan-7-one], the IC50 in the series on KB cells worked out at 0.77 µg/mL (≈ 4.18 µM). Further, the “Mortality in 12 days” value is 0/6 with Sarcoma 180 (10 mg/kg/day) and 1/7 in the series with Sarcoma 180 (20 mg/kg/day). In addition, in the series on Sarcoma 180 (Mus musculus, Sarcoma-180, ip, 288 h, 10 mg/kg/day, tumor s.c., tumor weight day 12, read-out: % Inhibition of tumor growth), the inhibition in vivo at 10 mg/kg was 44.7%. Moreover, in the series with Sarcoma 180 (Mus musculus, Sarcoma-180, ip, 288 h, 20 mg/kg/day, tumor s.c., tumor weight day 12, read-out: % Inhibition of tumor growth), the inhibition in vivo at 20 mg/kg was found to be 77.5%.
With `C[C@@H](NC(=O)Cc1cccs1)C(=O)N[C@H](C)C(=O)OCC1CN2C(=O)CC2O1` (stereo partly drawn) [Example 52, (3RS,5SR)-3-{D-2-N-[D-2-N-(Thiophen-2-yl)acetylaminopropanoyl]aminopropanoyl}oxymethyl-4-oxa-1-azabicyclo[3.2.0]heptan-7-one], the IC50 in the series with KB cells worked out at 0.197 µg/mL (≈ 0.481 µM). The entries for the “Mortality in 12 days” value in the series on Sarcoma 180 (25 mg/kg/day), with Sarcoma 180 (50 mg/kg/day) and with Sarcoma 180 (100 mg/kg/day) were 0/6, 0/6 and 2/6, respectively. Also, the inhibition in vivo at 25 mg/kg with Sarcoma 180 (setting [2]) came out at 45.2%. Moreover, the inhibition in vivo at 50 mg/kg in the series with Sarcoma 180 (setting [3]) was determined as 63.9%. The inhibition in vivo at 100 mg/kg with Sarcoma 180 (setting [4]) is 70.7%.
Regarding `N[C@H](CCC(=O)NCC1CN2C(=O)CC2O1)C(=O)O` (stereo partly drawn) [Example 69B, (3RS,5RS)-3-N-(D-4-Amino-4-carboxybutyryl)aminomethyl-4-oxa-1-azabicyclo[3.2.0]heptan-7-one], in the series with KB cells, the IC50 is 2.47 µg/mL (≈ 9.11 µM). For the same compound, in the series with Sarcoma 180 (100 mg/kg/day), the “Mortality in 12 days” value is recorded as 0/6. Further, the inhibition in vivo at 100 mg/kg with Sarcoma 180 (setting [4]) was determined as 37.8%.
For `CC(C)[C@@H](N)C(=O)N[C@@H](C(=O)OCC1CN2C(=O)CC2O1)C(C)C` (stereo partly drawn) [Example 62B, (3RS,5SR)-3-[D-2-N-(D-2-Amino-3-methylbutyryl)amino-3-methylbutyryl]oxymethyl-4-oxa-1-azabicyclo[3.2.0]heptan-7-one hydrochloride], in that order: 0.381 µg/mL, 0/6 and 42.1%.
In the case of `C[C@@H](N)C(=O)OC[C@H]1CN2C(=O)C[C@@H]2O1.Cl` (mixture of isomers) [Example 51B, (3RS,5SR)-3-(D-2-Aminopropanoyl)oxymethyl-4-oxa-1-azabicyclo[3.2.0]heptan-7-one hydrochloride], the IC50 in the series with KB cells stood at 0.867 µg/mL. The “Mortality in 12 days” value is recorded as 0/6 in the series on Sarcoma 180 (12.5 mg/kg/day), 0/6 in the series on Sarcoma 180 (25 mg/kg/day), 0/6 in the series with Sarcoma 180 (50 mg/kg/day) and 5/6 with Sarcoma 180 (100 mg/kg/day). Moreover, the inhibition in vivo at 12.5 mg/kg in the series on Sarcoma 180 (setting [1]) was determined as 40.9%. The inhibition in vivo at 25 mg/kg in the series on Sarcoma 180 (setting [2]) is 50.6%. Moreover, in the series with Sarcoma 180 (setting [3]), the inhibition in vivo at 50 mg/kg came out at 82.4%. Besides, the inhibition in vivo at 100 mg/kg in the series with Sarcoma 180 (setting [4]) amounted to 93.8%.
In the case of `CC(C)[C@H](N)C(=O)N[C@@H](C)C(=O)OCC1CN2C(=O)CC2O1` (stereo partly drawn) [Example 49B, (3RS,5SR)-3-[L-2-N-(L-2-Amino-3-methylbutyryl)aminopropanoyl]oxymethyl-4-oxa-1-azabicyclo[3.2.0]heptan-7-one hydrochloride], in the series on KB cells, the IC50 is 0.537 µg/mL. Moreover, the “Mortality in 12 days” value in the series on Sarcoma 180 (25 mg/kg/day) and with Sarcoma 180 (50 mg/kg/day) was 0/6 throughout. In addition, the inhibition in vivo at 25 mg/kg with Sarcoma 180 (setting [2]) was 55.7%. In the series with Sarcoma 180 (setting [3]), the inhibition in vivo at 50 mg/kg came out at 71%.
On to `N[C@@H](CC(=O)O)C(=O)NCC1CN2C(=O)CC2O1` (stereo partly drawn) [Example 67B, (3RS,5RS)-3-N-(L-2-Amino-3-carboxypropanoyl)aminomethyl-4-oxa-1-azabicyclo[3.2.0]heptan-7-one], for which the IC50 with KB cells was 6.04 µg/mL (≈ 23.5 µM). In addition, the “Mortality in 12 days” value in the series with Sarcoma 180 (50 mg/kg/day) and in the series with Sarcoma 180 (100 mg/kg/day) was 0/6 throughout. For the same compound, the inhibition in vivo at 50 mg/kg in the series with Sarcoma 180 (setting [3]) was found to be 41.1%. Besides, the inhibition in vivo at 100 mg/kg with Sarcoma 180 (setting [4]) is 65.9%.
In the case of `O=C(CCl)NC[C@@H]1CN2C(=O)C[C@H]2O1` (racemic) [Example 8, (3RS,5RS)-3-(N-Chloroacetylaminomethyl)-4-oxa-1-azabicyclo[3.2.0]heptan-7-one], in the series with KB cells, the IC50 stood at 0.084 µg/mL (≈ 0.384 µM). Moreover, the “Mortality in 12 days” value with Sarcoma 180 (8.8 mg/kg/day) is recorded as 0/6; with Sarcoma 180 (17.5 mg/kg/day), 0/6; in the series with Sarcoma 180 (35 mg/kg/day), 1/6. The inhibition in vivo at 8.8 mg/kg in the series with Sarcoma 180 (Mus musculus, Sarcoma-180, ip, 288 h, 8.8 mg/kg/day, tumor s.c., tumor weight day 12, read-out: % Inhibition of tumor growth) is 39%. For the same compound, the inhibition in vivo at 17.5 mg/kg in the series with Sarcoma 180 (Mus musculus, Sarcoma-180, ip, 288 h, 17.5 mg/kg/day, tumor s.c., tumor weight day 12, read-out: % Inhibition of tumor growth) came to 51.3%. For the same compound, the inhibition in vivo at 35 mg/kg with Sarcoma 180 (Mus musculus, Sarcoma-180, ip, 288 h, 35 mg/kg/day, tumor s.c., tumor weight day 12, read-out: % Inhibition of tumor growth) was determined as 64%.
Consider `CCCCCC(=O)NC[C@@H]1CN2C(=O)C[C@H]2O1` (racemic) [Example 4, (3RS,5RS)-3-(N-Hexanoylaminomethyl)-4-oxa-1-azabicyclo[3.2.0]heptan-7-one], for which the IC50 with KB cells worked out at 0.312 µg/mL (≈ 1.3 µM). The “Mortality in 12 days” value in the series with Sarcoma 180 (100 mg/kg/day) is 0/6. Besides, in the series with Sarcoma 180 (setting [4]), the inhibition in vivo at 100 mg/kg was determined as 49.4%.
Take `COc1ccc(S(=O)(=O)NC[C@H]2CN3C(=O)C[C@@H]3O2)cc1` (relative stereo) [Example 38, (3RS,5RS)-3-N-(4-Methoxybenzenesulfonyl)aminomethyl-4-oxa-1-azabicyclo[3.2.0]heptan-7-one]: the IC50 in the series on KB cells came to 0.158 µg/mL (≈ 0.506 µM). The “Mortality in 12 days” value with Sarcoma 180 (25 mg/kg/day) is 0/6; with Sarcoma 180 (50 mg/kg/day), 0/6; with Sarcoma 180 (100 mg/kg/day) it was 1/6. Further, in the series on Sarcoma 180 (setting [2]), the inhibition in vivo at 25 mg/kg stood at 26.5%. Further, in the series on Sarcoma 180 (setting [3]), the inhibition in vivo at 50 mg/kg amounted to 55.4%. Also, the inhibition in vivo at 100 mg/kg in the series with Sarcoma 180 (setting [4]) stood at 72%.
As to `CC(C)[C@H](N)C(=O)N[C@H](C(=O)OCC1CN2C(=O)CC2O1)C(C)C` (stereo partly drawn) [Example 56B, (3RS,5SR)-3-[L-2-N-(L-2-Amino-3-methylbutyryl)amino-3-methylbutyryl]oxymethyl-4-oxa-1-azabicyclo-[3.2.0]heptan-7-one hydrochloride], the IC50 in the series on KB cells was 0.283 µg/mL. The “Mortality in 12 days” value in the series on Sarcoma 180 (12.5 mg/kg/day), in the series with Sarcoma 180 (25 mg/kg/day) and in the series with Sarcoma 180 (50 mg/kg/day) was 0/6 in each case. The inhibition in vivo at 12.5 mg/kg with Sarcoma 180 (setting [1]) amounted to 48.9%. The inhibition in vivo at 25 mg/kg in the series with Sarcoma 180 (setting [2]) is 69.2%. Moreover, the inhibition in vivo at 50 mg/kg in the series on Sarcoma 180 (setting [3]) is 73.2%.

Source of the values: patent US5994342A, “3-(substituted methyl)-4-oxa-1-azabicyclo[3.2.0]heptan-7-one derivatives useful as antitumor agents” (priority 1994, dated 1999).
